# Measured values: US20150105252A1, “SUBSTITUTED PYRAZOLES AS HERBICIDES” (E I DU PONT DE NEMOURS AND COMPANY, priority 2013, published 2015)
# Experiments:
# bluegrass = assay: Test D preemergence; assay type: in vivo, Poa annua; conditions: for Plant response rating, Bluegrass: Preemergence, scale 0 to 100
# Source text: (§1) Seeds of plant species selected from bluegrass (annual bluegrass, Poa annua), blackgrass (Alopecurus myosuroides), canarygrass (littleseed canarygrass, Phalaris minor), chickweed (common chickweed, Stellaria media), galium (catchweed bedstraw, Galium aparine), bromegrass, downy (downy bromegrass, Bromus tectorum), field poppy (Papaver rhoeas), field violet (Viola arvensis), foxtail, green (green foxtail, Setaria viridis), deadnettle (henbit deadnettle, Lamium amplexicaule), ryegrass, Italian (Italian ryegrass, Lolium multiflorum), kochia (Kochia scoparia), lambsquarters (Chenopodium album), oilseed rape (Brassica napus), pigweed (redroot pigweed, Amaranthus retroflexus), chamomile (scentless chamomile, Matricaria inodora), speedwell (bird's-eye speedwell, Veronica persica), barley, spring (spring barley, Hordeum vulgare), wheat, spring (spring wheat, Triticum aestivum), buckwheat, wild (wild buckwheat, Polygonum convolvulus), mustard, wild (wild mustard, Sinapis arvensis), oat, wild (wild oat, Avena fatua), radish, wild (wild radish, Raphanus raphanistrum), windgrass (Apera spica-venti), Russian thistle (Salsola kali), barley, winter (winter barley, Hordeum vulgare), and wheat, winter (winter wheat, Triticum aestivum) were planted into a silt loam soil and treated preemergence with test chemicals formulated in a non-phytotoxic solvent mixture which included a surfactant.
# (§2) At the same time, these species were planted in pots containing Redi-Earth® planting medium (Scotts Company, 14111 Scottslawn Road, Marysville, Ohio 43041) comprising spaghnum peat moss, vermiculite, wetting agent and starter nutrients and treated with postemergence applications of the test chemicals formulated in the same manner. Plants ranged in height from 2 to 18 cm (1- to 4-leaf stage). Treated plants and controls were maintained in a controlled growth environment for 14 to 21 days after which time all species were compared to controls and visually evaluated. Plant response ratings, summarized in Table D, are based on a scale of 0 to 100 where 0 is no effect and 100 is complete control. A dash (-) response means no test result.
# canarygrass [1] = assay: Test D preemergence; assay type: in vivo, Phalaris minor; conditions: for Plant response rating, Canarygrass: Preemergence, scale 0 to 100
# Source text: as §1, §2
# lambsquarters = assay: Test D preemergence; assay type: in vivo, Chenopodium album; conditions: for Plant response rating, Lambsquarters: Preemergence, scale 0 to 100
# Source text: as §1, §2
# oilseed rape = assay: Test D preemergence; assay type: in vivo, Brassica napus; conditions: for Plant response rating, Oilseed Rape: Preemergence, scale 0 to 100
# Source text: as §1, §2
# chamomile [2] = assay: Test D preemergence; assay type: in vivo, Matricaria inodora; conditions: for Plant response rating, Chamomile: Preemergence, scale 0 to 100
# Source text: as §1, §2
# wheat, spring = assay: Test D preemergence; assay type: in vivo, Triticum aestivum; conditions: for Plant response rating, Wheat, Spring: Preemergence, scale 0 to 100
# Source text: as §1, §2
# wheat, winter = assay: Test D preemergence; assay type: in vivo, Triticum aestivum; conditions: for Plant response rating, Wheat, Winter: Preemergence, scale 0 to 100
# Source text: as §1, §2
# oat, wild [3] = assay: Test D preemergence; assay type: in vivo, Avena fatua; conditions: for Plant response rating, Oat, Wild: Preemergence, scale 0 to 100
# Source text: as §1, §2
# blackgrass = assay: Test D postemergence; assay type: in vivo, Alopecurus myosuroides; conditions: scale 0 to 100
# Source text: as §1, §2
# canarygrass [4] = assay: Test D postemergence; assay type: in vivo, Phalaris minor; conditions: scale 0 to 100
# Source text: as §1, §2
# field violet = assay: Test D postemergence; assay type: in vivo, Viola arvensis; conditions: scale 0 to 100
# Source text: as §1, §2
# chamomile [5] = assay: Test D postemergence; assay type: in vivo, Matricaria inodora; conditions: scale 0 to 100
# Source text: as §1, §2
# speedwell = assay: Test D postemergence; assay type: in vivo, Veronica persica; conditions: scale 0 to 100
# Source text: as §1, §2
# barley, spring = assay: Test D postemergence; assay type: in vivo, Hordeum vulgare; conditions: scale 0 to 100
# Source text: as §1, §2
# barley, winter = assay: Test D postemergence; assay type: in vivo, Hordeum vulgare; conditions: scale 0 to 100
# Source text: as §1, §2
# oat, wild [6] = assay: Test D postemergence; assay type: in vivo, Avena fatua; conditions: scale 0 to 100
# Source text: as §1, §2
# radish, wild = assay: Test D postemergence; assay type: in vivo, Raphanus raphanistrum; conditions: scale 0 to 100
# Source text: as §1, §2
# windgrass = assay: Test D postemergence; assay type: in vivo, Apera spica-venti; conditions: scale 0 to 100
# Source text: as §1, §2
# [7] = 16 g ai/ha, taken as preemergence
compound,measurement,setting,value
CCc1cc(C(=O)NOC(C)C)nn1Cc1cccc(OC(F)(F)F)c1 [Compound 70],"Plant response rating (scale 0 to 100), Bluegrass",bluegrass; [7],0
same,"Plant response rating, Bluegrass",bluegrass; 31 g ai/ha,0
same,"Plant response rating, Bluegrass",bluegrass; 62 g ai/ha,0
same,"Plant response rating, Bluegrass",bluegrass; 125 g ai/ha,0
same,"Plant response rating, Bluegrass",bluegrass; 250 g ai/ha,10
same,"Plant response rating (scale 0 to 100), Canarygrass",canarygrass [1]; [7],0
same,"Plant response rating, Canarygrass",canarygrass [1]; 31 g ai/ha,0
same,"Plant response rating, Canarygrass",canarygrass [1]; 62 g ai/ha,0
same,"Plant response rating, Canarygrass",canarygrass [1]; 125 g ai/ha,20
same,"Plant response rating, Canarygrass",canarygrass [1]; 250 g ai/ha,75
same,"Plant response rating (scale 0 to 100), Lambsquarters",lambsquarters; [7],0
same,"Plant response rating, Lambsquarters",lambsquarters; 31 g ai/ha,0
same,"Plant response rating, Lambsquarters",lambsquarters; 62 g ai/ha,0
same,"Plant response rating, Lambsquarters",lambsquarters; 125 g ai/ha,100
same,"Plant response rating, Lambsquarters",lambsquarters; 250 g ai/ha,100
same,"Plant response rating (scale 0 to 100), Oilseed Rape",oilseed rape; [7],0
same,"Plant response rating, Oilseed Rape",oilseed rape; 31 g ai/ha,0
same,"Plant response rating, Oilseed Rape",oilseed rape; 62 g ai/ha,0
same,"Plant response rating, Oilseed Rape",oilseed rape; 125 g ai/ha,10
same,"Plant response rating, Oilseed Rape",oilseed rape; 250 g ai/ha,40
same,"Plant response rating (scale 0 to 100), Chamomile",chamomile [2]; [7],0
same,"Plant response rating, Chamomile",chamomile [2]; 31 g ai/ha,0
same,"Plant response rating, Chamomile",chamomile [2]; 62 g ai/ha,0
same,"Plant response rating, Chamomile",chamomile [2]; 125 g ai/ha,15
same,"Plant response rating, Chamomile",chamomile [2]; 250 g ai/ha,40
same,"Plant response rating (scale 0 to 100), Wheat, Spring","wheat, spring; [7]",0
same,"Plant response rating, Wheat, Spring","wheat, spring; 31 g ai/ha",0
same,"Plant response rating, Wheat, Spring","wheat, spring; 62 g ai/ha",0
same,"Plant response rating, Wheat, Spring","wheat, spring; 125 g ai/ha",10
same,"Plant response rating, Wheat, Spring","wheat, spring; 250 g ai/ha",20
same,"Plant response rating (scale 0 to 100), Wheat, Winter","wheat, winter; [7]",0
same,"Plant response rating, Wheat, Winter","wheat, winter; 31 g ai/ha",0
same,"Plant response rating, Wheat, Winter","wheat, winter; 62 g ai/ha",0
same,"Plant response rating, Wheat, Winter","wheat, winter; 125 g ai/ha",0
same,"Plant response rating, Wheat, Winter","wheat, winter; 250 g ai/ha",10
same,"Plant response rating (scale 0 to 100), Oat, Wild","oat, wild [3]; [7]",0
same,"Plant response rating, Oat, Wild","oat, wild [3]; 31 g ai/ha",0
same,"Plant response rating, Oat, Wild","oat, wild [3]; 62 g ai/ha",0
same,"Plant response rating, Oat, Wild","oat, wild [3]; 125 g ai/ha",5
same,"Plant response rating, Oat, Wild","oat, wild [3]; 250 g ai/ha",30
same,"Plant response rating, Blackgrass","blackgrass; Postemergence, 16 g ai/ha",0
same,Blackgrass plant response rating,"blackgrass; Postemergence, 31 g ai/ha",0
same,Blackgrass plant response rating,"blackgrass; Postemergence, 125 g ai/ha",0
same,Blackgrass plant response rating,"blackgrass; Postemergence, 250 g ai/ha",0
same,Blackgrass plant response rating,"blackgrass; postemergence, 62 g ai/ha",0
same,"Plant response rating, Canarygrass","canarygrass [4]; Postemergence, 16 g ai/ha",0
same,Canarygrass plant response rating,"canarygrass [4]; Postemergence, 31 g ai/ha",0
same,Canarygrass plant response rating,"canarygrass [4]; Postemergence, 125 g ai/ha",0
same,Canarygrass plant response rating,"canarygrass [4]; Postemergence, 250 g ai/ha",10
same,Canarygrass plant response rating,"canarygrass [4]; postemergence, 62 g ai/ha",0
same,"Plant response rating, Field Violet","field violet; Postemergence, 16 g ai/ha",20
same,Field Violet plant response rating,"field violet; Postemergence, 31 g ai/ha",40
same,Field Violet plant response rating,"field violet; Postemergence, 125 g ai/ha",75
same,Field Violet plant response rating,"field violet; Postemergence, 250 g ai/ha",75
same,Field Violet plant response rating,"field violet; postemergence, 62 g ai/ha",40
same,"Plant response rating, Chamomile","chamomile [5]; Postemergence, 16 g ai/ha",10
same,Chamomile plant response rating,"chamomile [5]; Postemergence, 31 g ai/ha",30
same,Chamomile plant response rating,"chamomile [5]; Postemergence, 125 g ai/ha",40
same,Chamomile plant response rating,"chamomile [5]; Postemergence, 250 g ai/ha",50
same,Chamomile plant response rating,"chamomile [5]; postemergence, 62 g ai/ha",30
same,"Plant response rating, Speedwell","speedwell; Postemergence, 16 g ai/ha",100
same,Speedwell plant response rating,"speedwell; Postemergence, 31 g ai/ha",100
same,Speedwell plant response rating,"speedwell; Postemergence, 125 g ai/ha",100
same,Speedwell plant response rating,"speedwell; Postemergence, 250 g ai/ha",100
same,Speedwell plant response rating,"speedwell; postemergence, 62 g ai/ha",100
same,"Barley, Spring plant response rating","barley, spring; Postemergence, 16 g ai/ha",0
same,"Barley, Spring plant response rating","barley, spring; Postemergence, 31 g ai/ha",0
same,"Barley, Spring plant response rating","barley, spring; Postemergence, 125 g ai/ha",5
same,"Barley, Spring plant response rating","barley, spring; Postemergence, 250 g ai/ha",5
same,"Barley, Spring plant response rating","barley, spring; postemergence, 62 g ai/ha",0
same,"Barley, Winter plant response rating","barley, winter; Postemergence, 16 g ai/ha",0
same,"Barley, Winter plant response rating","barley, winter; Postemergence, 31 g ai/ha",0
same,"Barley, Winter plant response rating","barley, winter; Postemergence, 125 g ai/ha",5
same,"Barley, Winter plant response rating","barley, winter; Postemergence, 250 g ai/ha",5
same,"Barley, Winter plant response rating","barley, winter; postemergence, 62 g ai/ha",5
same,"Plant response rating, Oat, Wild","oat, wild [6]; Postemergence, 16 g ai/ha",0
same,"Oat, Wild plant response rating","oat, wild [6]; Postemergence, 31 g ai/ha",0
same,"Oat, Wild plant response rating","oat, wild [6]; Postemergence, 125 g ai/ha",0
same,"Oat, Wild plant response rating","oat, wild [6]; Postemergence, 250 g ai/ha",10
same,"Oat, Wild plant response rating","oat, wild [6]; postemergence, 62 g ai/ha",0
same,"Plant response rating, Radish, Wild","radish, wild; Postemergence, 16 g ai/ha",10
same,"Radish, Wild plant response rating","radish, wild; Postemergence, 31 g ai/ha",10
same,"Radish, Wild plant response rating","radish, wild; Postemergence, 125 g ai/ha",50
same,"Radish, Wild plant response rating","radish, wild; Postemergence, 250 g ai/ha",85
same,"Radish, Wild plant response rating","radish, wild; postemergence, 62 g ai/ha",10
same,"Plant response rating, Windgrass","windgrass; Postemergence, 16 g ai/ha",0
same,Windgrass plant response rating,"windgrass; Postemergence, 31 g ai/ha",0
same,Windgrass plant response rating,"windgrass; Postemergence, 125 g ai/ha",0
same,Windgrass plant response rating,"windgrass; Postemergence, 250 g ai/ha",0
same,Windgrass plant response rating,"windgrass; postemergence, 62 g ai/ha",0
